In ChEMBL document CHEMBL1201862, “PubChem BioAssay data set” (2004):
Blank lines part the entries; values can stand above or below the compound they belong to. Calls of active or inactive are those of the source.

Tests used:
[1] = MC4R antagonists, dose response, counter-screen for LGR2 antagonist project, cell-based, plate reader, cherry pick (AID 743444); assay type: functional;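 also: transfected HEK 293 cells stimulated with alpha-MSH peptide; potency of inhibitors of the alpha-MSH evoked signal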
[2] = A549 cell cytotoxicity, dose response, cytotoxicity control, plate reader, cherry-pick, antagonist series (AID 743412); assay type: functional, cell-based
[3] = HepG2 cell cytotoxicity, dose response, cytotoxicity control, plate reader, cherry-pick, antagonist series (AID 743416); assay type: functional, cell-based
[4] = LGR2 antagonists, dose response, cell-based, HEK293, CRE-luciferase reporter, cherry pick, set 2 (AID 743343); assay type: functional;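 also: transfected cells were stimulated with diluted bursicon conditioned medium after compound addition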
[5] = biological target: Prothrombin (Homo sapiens, UniProt P00734); experiment: Thrombin 1536 HTS Dose Response Confirmation. [Related pubchem assays: 1046 (Thrombin 1536 HTS; hits were confirmed in this assay)]; assay type: functional
[6] = tested on: HEK293; experiment: inhibitors of LMP1-driven NF-kB reporter, dose response, cell-based, HEK293, luciferase, cherry-pick (AID 588343); assay type: functional; conditions: Homo sapiens
[7] = HEp-2 cell cytotoxicity, dose response, cytotoxicity control for RSV inhibitor project, HTS (AID 2410); assay type: functional; conditions: human respiratory syncytial virus
[8] = biological target: T1, fMet-Leu-Phe receptor (Homo sapiens, UniProt P21462); experiment: FPR ligands, dose response (AID 519); assay type: functional
T1 sequence (P21462 whole entry): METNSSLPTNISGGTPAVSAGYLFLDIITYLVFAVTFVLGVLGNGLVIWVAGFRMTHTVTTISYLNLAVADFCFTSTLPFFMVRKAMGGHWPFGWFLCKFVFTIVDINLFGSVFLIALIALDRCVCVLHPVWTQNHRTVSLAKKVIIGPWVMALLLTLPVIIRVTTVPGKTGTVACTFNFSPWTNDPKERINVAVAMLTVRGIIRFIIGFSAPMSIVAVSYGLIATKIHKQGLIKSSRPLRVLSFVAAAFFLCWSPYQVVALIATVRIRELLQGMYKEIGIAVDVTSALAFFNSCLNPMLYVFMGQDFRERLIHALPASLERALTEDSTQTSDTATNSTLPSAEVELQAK

[9] = biological target: T2, Bcl-2-related protein A1 (Mus musculus, UniProt Q07440); experiment: Bfl-1 binding inhibitors, SAR follow-up, biochemical, fluorescence polarization (AID 1070)
T2 sequence (Q07440 whole entry): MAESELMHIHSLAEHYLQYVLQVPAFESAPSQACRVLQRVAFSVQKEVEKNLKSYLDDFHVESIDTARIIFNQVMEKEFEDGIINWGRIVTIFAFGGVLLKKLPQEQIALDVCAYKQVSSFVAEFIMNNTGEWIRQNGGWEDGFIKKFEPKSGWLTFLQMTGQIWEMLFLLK

[10] = biological target: Glyceraldehyde-3-phosphate dehydrogenase (Homo sapiens, UniProt P04406)
Chain of Glyceraldehyde-3-phosphate dehydrogenase (P04406 whole entry): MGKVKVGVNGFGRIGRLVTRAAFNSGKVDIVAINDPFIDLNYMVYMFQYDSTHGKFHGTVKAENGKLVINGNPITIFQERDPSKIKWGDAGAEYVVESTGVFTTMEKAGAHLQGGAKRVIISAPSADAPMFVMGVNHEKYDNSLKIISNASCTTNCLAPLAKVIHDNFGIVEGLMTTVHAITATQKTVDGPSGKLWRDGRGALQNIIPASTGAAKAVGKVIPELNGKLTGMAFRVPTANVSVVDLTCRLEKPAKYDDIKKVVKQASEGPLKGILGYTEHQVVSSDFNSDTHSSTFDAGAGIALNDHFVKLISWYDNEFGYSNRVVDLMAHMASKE

[11] = biological target: T2, Bcl-2-related protein A1; experiment: Bfl-1 inhibitors blocking BH3 peptide binding, confirmation, biochemical, TR-FRET, mouse Bfl-1 (AID 621);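 also: TR-FRET binding of GST-Bfl-1 to FITC-labelled Bid peptide via terbium antibody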
[12] = ZM109 Env clade C HIV-1 fusion inhibitors, dose response, HeLa effector, CEM target cells, luciferase, cherry-pick (AID 652058); assay type: functional, cell-based
[13] = inhibitors of HIV Env-driven cell fusion, dose response, cherry-pick (AID 652057); assay type: functional, cell-based
[14] = inhibitors of clade B AD8 Env fusion, dose response, cell-based, cherry-pick (AID 652062); assay type: functional;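 also: luciferase signal from cell-cell fusion driven by HIV-1 clade B AD8 Env; potency is for inhibitors of fusion seen as a drop in luminescence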
[15] = off-target signal loss in HeLa-CEM21 co-culture – HeLa F-luc CTL cells, cherry-picked, counter-screen for HIV-1 Env fusion inhibitor project, dose response (AID 652040); assay type: functional, cell-based;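 also: potency for signal decrease marking cytotoxic or nonspecific inhibition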
[16] = biological target: Cytochrome P450 2D6 (Homo sapiens, UniProt P10635); experiment: qHTS Assay for Inhibitors and Substrates of Cytochrome P450 2D6. [Related pubchem assays: 410 ]; assay type: ADME; conditions: read-out: Potency
Chain of Cytochrome P450 2D6 (P10635 whole entry): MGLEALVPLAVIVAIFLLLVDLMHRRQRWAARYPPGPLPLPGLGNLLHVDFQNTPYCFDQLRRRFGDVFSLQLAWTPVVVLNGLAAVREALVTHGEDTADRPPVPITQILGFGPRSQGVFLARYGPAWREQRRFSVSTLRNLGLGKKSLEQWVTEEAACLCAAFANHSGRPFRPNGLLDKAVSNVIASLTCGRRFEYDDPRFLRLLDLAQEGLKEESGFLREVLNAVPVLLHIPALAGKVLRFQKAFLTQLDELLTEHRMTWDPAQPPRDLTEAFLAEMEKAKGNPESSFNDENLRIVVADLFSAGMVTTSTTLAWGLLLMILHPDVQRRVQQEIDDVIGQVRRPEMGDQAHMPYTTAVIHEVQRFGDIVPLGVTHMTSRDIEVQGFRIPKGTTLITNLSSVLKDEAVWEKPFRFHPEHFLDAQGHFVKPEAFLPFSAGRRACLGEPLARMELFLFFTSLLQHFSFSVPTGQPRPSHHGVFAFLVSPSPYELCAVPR

[17] = ADAM10 protease inhibitors, dose response, selectivity assay for ADAM17 exosite inhibitor project, biochemical, FRET peptide substrate, recombinant human ADAM10 (AID 743259);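 also: ADAM10 enzyme cleaving a FRET peptide substrate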
[18] = biological target: Disintegrin and metalloproteinase domain-containing protein 17 (Homo sapiens, UniProt P78536); experiment: exosite inhibitors of ADAM17, dose response, biochemical (AID 743260)
Chain of Disintegrin and metalloproteinase domain-containing protein 17 (P78536 whole entry, the tested form may be a part): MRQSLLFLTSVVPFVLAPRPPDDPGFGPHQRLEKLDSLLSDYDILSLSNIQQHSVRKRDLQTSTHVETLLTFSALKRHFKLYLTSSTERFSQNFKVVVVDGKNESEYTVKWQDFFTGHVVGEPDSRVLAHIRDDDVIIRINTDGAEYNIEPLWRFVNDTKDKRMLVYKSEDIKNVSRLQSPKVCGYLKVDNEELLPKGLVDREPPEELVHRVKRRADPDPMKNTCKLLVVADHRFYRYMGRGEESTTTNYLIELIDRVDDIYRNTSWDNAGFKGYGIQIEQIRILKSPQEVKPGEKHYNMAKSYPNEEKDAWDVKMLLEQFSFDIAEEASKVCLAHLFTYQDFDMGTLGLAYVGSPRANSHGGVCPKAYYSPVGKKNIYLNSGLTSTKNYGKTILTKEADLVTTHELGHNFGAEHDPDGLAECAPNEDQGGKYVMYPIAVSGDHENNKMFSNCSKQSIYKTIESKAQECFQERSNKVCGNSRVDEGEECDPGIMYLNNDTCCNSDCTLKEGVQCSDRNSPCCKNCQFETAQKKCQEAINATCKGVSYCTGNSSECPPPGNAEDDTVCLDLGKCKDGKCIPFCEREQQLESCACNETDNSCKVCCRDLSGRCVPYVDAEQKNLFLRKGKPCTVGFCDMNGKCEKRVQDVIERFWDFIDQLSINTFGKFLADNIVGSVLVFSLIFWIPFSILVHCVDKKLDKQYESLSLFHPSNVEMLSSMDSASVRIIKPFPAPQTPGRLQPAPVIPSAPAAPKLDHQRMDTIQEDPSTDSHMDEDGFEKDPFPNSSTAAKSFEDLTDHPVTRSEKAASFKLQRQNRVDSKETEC

[19] = biological target: Cytochrome P450 2C9 (Homo sapiens, UniProt P11712); conditions: Potency
Chain of Cytochrome P450 2C9 (P11712 whole entry): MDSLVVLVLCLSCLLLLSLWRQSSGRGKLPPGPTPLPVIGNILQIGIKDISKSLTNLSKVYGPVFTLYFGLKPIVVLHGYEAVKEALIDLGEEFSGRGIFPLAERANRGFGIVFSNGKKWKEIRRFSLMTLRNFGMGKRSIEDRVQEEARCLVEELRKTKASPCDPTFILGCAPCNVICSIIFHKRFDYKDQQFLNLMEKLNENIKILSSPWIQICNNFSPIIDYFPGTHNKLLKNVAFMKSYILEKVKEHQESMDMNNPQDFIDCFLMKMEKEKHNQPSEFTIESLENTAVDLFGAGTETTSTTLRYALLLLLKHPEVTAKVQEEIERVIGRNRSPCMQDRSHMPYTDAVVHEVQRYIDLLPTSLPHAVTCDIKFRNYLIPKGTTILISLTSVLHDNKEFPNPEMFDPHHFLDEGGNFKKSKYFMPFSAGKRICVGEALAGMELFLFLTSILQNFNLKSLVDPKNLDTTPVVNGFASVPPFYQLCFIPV

[20] = biological target: Eukaryotic translation initiation factor 4E (Mus musculus, UniProt P63073); experiment: eIF4E–eIF4G protein interaction inhibitors, dose response, biochemical, TR-FRET (AID 855); assay type: functional;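 also: potency for disrupting eIF4E binding to eIF4GI seen as loss of FRET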
Chain of Eukaryotic translation initiation factor 4E (P63073 whole entry): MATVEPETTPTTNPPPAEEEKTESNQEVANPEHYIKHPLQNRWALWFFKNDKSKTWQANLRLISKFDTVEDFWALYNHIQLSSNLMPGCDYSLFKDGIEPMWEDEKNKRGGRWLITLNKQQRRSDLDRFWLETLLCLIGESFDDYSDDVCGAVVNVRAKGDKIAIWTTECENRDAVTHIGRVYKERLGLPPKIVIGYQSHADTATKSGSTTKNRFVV

[21] = Vero cell cytotoxicity, dose response, cytotoxicity control for Vif-APOBEC3G degradation inhibitor project, Vero cells (AID 1117358); assay type: functional; conditions: Human immunodeficiency virus 1, Vero
[22] = tested on: H9c2; experiment: cells; assay type: functional, cell-based; conditions: Rattus norvegicus, H9c2, Myocardium;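 also: confirmatory concentration-response retest of ultra-high-throughput screening hits for modulation of myocardial damage; cell death induced by hydrogen peroxide oxidative stress; compound pretreatment for 60 min then peroxide exposure for 2 h; potency is for protecting the cells against peroxide damage rather than for killing them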
[23] = cells; assay type: functional, cell-based; conditions: HEK-CNG
[24] = biological target: T3, Galanin receptor type 3 (Homo sapiens, UniProt O60755); experiment: Fluorescence-based cell-based primary high throughput dose response assay to identify antagonists of the Galanin Receptor 3 (GalR3).; assay type: functional
T3 sequence (O60755 whole entry): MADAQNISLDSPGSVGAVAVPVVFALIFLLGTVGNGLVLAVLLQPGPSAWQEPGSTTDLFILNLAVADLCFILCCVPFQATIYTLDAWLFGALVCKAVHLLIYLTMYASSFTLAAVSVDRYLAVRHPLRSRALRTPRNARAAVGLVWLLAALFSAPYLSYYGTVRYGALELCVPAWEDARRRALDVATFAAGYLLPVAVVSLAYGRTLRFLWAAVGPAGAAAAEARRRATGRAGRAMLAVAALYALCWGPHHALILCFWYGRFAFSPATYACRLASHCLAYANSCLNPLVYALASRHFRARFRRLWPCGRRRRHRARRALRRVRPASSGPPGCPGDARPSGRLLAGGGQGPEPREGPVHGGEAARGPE
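For EC50 in this document: target is galanin receptor GalR3 read with a cAMP biosensor in HEK293 cells.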

Compound: O=C(Nc1nc2cc3c(cc2s1)OCO3)c1ccco1
AC50 [1]: 4.79 µM (active) | AC50 [2]: > 52 µM (inactive) | AC50 [3]: > 52 µM (inactive) | AC50 [4]: 4.2 µM (active) | IC50 [5]: 9.57 µM (active) | AC50 [6]: 1.57 µM (active)

Compound: COc1ccc2nc(O)c(CN(Cc3cccs3)Cc3nnnn3Cc3ccccc3)cc2c1
AC50 [12]: 5.4 µM (active) | AC50 [13]: 3.01 µM (active) | AC50 [14]: 4.94 µM (active) | AC50 [15]: 4.44 µM (active)

Compound: C=C1C(=O)O[C@H]2C[C@@]3(C)CCCC(=C)[C@@H]3C[C@H]12
AC50 [16]: 10 µM (inconclusive) | AC50 [19]: 39.8 µM (inconclusive)

Compound: CN1C(=O)CSc2ccc(NC(=O)NCc3cccnc3)cc21
CC50 [21]: > 40 µM (active)

Compound: C=CC1=C(C)C2=NC/1=C\C1=[N+]3[Zn-2][N+]4=C(/C=C5N=C(/C=C3/C(CCC(=O)O)=C1C)C(CCC(=O)O)=C\5C)C(C)=C(C=C)/C4=C/2
AC50 [16]: 25.1 µM (inconclusive) | AC50 [19]: 39.8 µM (inconclusive)

Compound: O=C1C(Cl)=C(Cl)C(=O)N1c1ccc(C(F)(F)F)cc1
IC50 [9]: 0.999 µM (active) | IC50 [10]: > 100 µM (not active) | IC50 [11]: 1.46 µM (active)

Compound: COc1cccc(Cn2nc(C(=O)O)c3ccccc3c2=O)c1
IC50 [22]: > 79 µM (inactive) | EC50 [23]: > 29.9 µM (inactive) | IC50 [24]: > 29.9 µM (inactive)

Compound: Cc1ccc(C(=O)OC2CCS(=O)(=O)c3sccc32)cc1 (stereo not given)
CC50 [21]: 32.7 µM (active)

More lines, main results first:

Ki [8]: > 66.7 µM (inactive)
Compound: Cc1ccc(NC(=O)C2CCCN2S(=O)(=O)c2cccc3cccnc23)cc1F (stereo not given)
CC50 [7]: 39.4 µM (active)

IC50 [9]: 1.63 µM (active) | IC50 [10]: > 10 µM (inconclusive) | IC50 [11]: 1.33 µM (active)
Compound: O=C1C(Cl)=C(N2CCOCC2)C(=O)N1c1cc(Cl)cc(Cl)c1

IC50 [5]: > 50 µM (not active)
Compound: COc1cccc(CN(C)C(=O)CCc2nnc(-c3ccsc3)o2)c1

AC50 [16]: 20 µM (inconclusive)
Compound: c1ccc(Nc2cc(-c3ccoc3)ncn2)cc1

IC50 [5]: 0.246 µM (active)
Compound: COCC(=O)n1nc(-c2ccccc2)nc1NCc1ccccc1

IC50 [18]: > 69.5 µM (inactive)
Compound: COc1ccc(NS(=O)(=O)c2cc(NC(=O)c3cccs3)ccc2N2CCCC2)cc1
IC50 [17]: > 69.5 µM (inactive)

AC50 [19]: 6.31 µM (inconclusive)
Compound: CC(C)[C@@H](CC(=O)N[C@@H]1CCCC[C@H]1C(=O)N[C@H](CC(=O)N[C@@H](CCC(=O)O)CC(=O)O)Cc1ccccc1)NC(=O)C[C@H](Cc1ccccc1)NC(=O)[C@@H]1CNCC[C@H]1N

IC50 [20]: 50 µM (inactive)
Compound: O=C(c1ccccc1)N(Nc1ccccc1)c1ccccc1

Ki [8]: > 66.7 µM (inactive)
Compound: O=C(C1=C(O)C(=O)N(c2ncccn2)C1c1ccc(Cl)cc1)c1ccco1 (stereo not given)
